This note sets out measurements from US9732077B2, “Diazepane orexin receptor antagonists” (MERCK SHARP & DOHME CORP., priority 2013, dated 2017).

Broadly, the IC50 is the point on the concentration scale where inhibition reaches its midpoint. A lower IC50 goes with greater potency in that assay.

One test concerns the target T1, human orexin-2 receptor (Homo sapiens, UniProt O43614).
T1 construct: expressed in transfected cells; host or cells: CHO cells (G418 selection)
T1 sequence (O43614 1-444): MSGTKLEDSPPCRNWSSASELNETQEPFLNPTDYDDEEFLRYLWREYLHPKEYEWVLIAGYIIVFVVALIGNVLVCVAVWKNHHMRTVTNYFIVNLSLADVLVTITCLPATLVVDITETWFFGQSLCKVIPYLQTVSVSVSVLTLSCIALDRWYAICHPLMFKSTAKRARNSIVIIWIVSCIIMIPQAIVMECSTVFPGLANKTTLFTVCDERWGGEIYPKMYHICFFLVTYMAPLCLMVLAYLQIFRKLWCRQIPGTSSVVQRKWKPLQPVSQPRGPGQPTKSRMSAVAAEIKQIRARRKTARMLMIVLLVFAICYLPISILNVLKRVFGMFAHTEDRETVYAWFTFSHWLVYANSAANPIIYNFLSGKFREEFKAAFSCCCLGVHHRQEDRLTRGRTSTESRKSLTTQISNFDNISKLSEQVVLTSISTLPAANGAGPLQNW
The test can be described thus: OX2R FLIPR Ca flux assay (CHO cells). The settings on record: for IC50: CHO cells expressing human orexin-2 receptor, agonist 70 pM Ala-6,12 orexin-A; for Fold Selectivity OX2R vs. OX1R: ratio of OX1R FLIPR to OX2R FLIPR. The class given is cell-based. On the procedure:
(§1) The utility of the compounds in accordance with the present invention as orexin receptor OX1R and/or OX2R antagonists may be readily determined without undue experimentation by methodology well known in the art, including the “FLIPR Ca^+ Flux Assay” (Okumura et al., Biochem. Biophys. Res. Comm. 280:976-981, 2001). In a typical experiment the OX1 and OX2 receptor antagonistic activity of the compounds of the present invention was determined in accordance with the following experimental method. For intracellular calcium measurements, Chinese hamster ovary (CHO) cells expressing the rat orexin-1 receptor or the human orexin-2 receptor, are grown in Iscove's modified DMEM containing 2 mM L-glutamine, […], 1% hypoxanthine-thymidine supplement, 100 U/ml penicillin, 100 μg/ml streptomycin and 10% heat-inactivated fetal calf serum (FCS). The cells are seeded at 20,000 cells/well into Becton-Dickinson black 384-well clear bottom sterile plates coated with poly-D-lysine. All reagents were from GIBCO-Invitrogen Corp. The seeded plates are incubated overnight at 37° C. and 5% CO2. Ala-6,12 human orexin-A as the agonist is prepared as a 1 mM stock solution in 1% bovine serum albumin (BSA) and diluted in assay buffer (HBSS containing 20 mM HEPES, 0.1% BSA and 2.5 mM probenecid, pH7.4) for use in the assay at a final concentration of 70 pM. Test compounds are prepared as 10 mM stock solution in DMSO, then diluted in 384-well plates, first in DMSO, then assay buffer. On the day of the assay, cells are washed 3 times with 100 μl assay buffer and then incubated for 60 min (37° C., 5% CO2) in 60 μl assay buffer containing 1 μM Fluo-4AM ester, 0.02% pluronic acid, and 1% BSA. The dye loading solution is then aspirated and cells are washed 3 times with 100 μl assay buffer. 30 μl of that same buffer is left in each well. Within the Fluorescent Imaging Plate Reader (FLIPR, Molecular Devices), test compounds are added to the plate in a volume of 25 μl, incubated for 5 min and finally 25 μl of agonist is added. Fluorescence is measured for each well at 1 second intervals for 5 minutes and the height of each fluorescence peak is compared to the height of the fluorescence peak induced by 70 pM Ala-6,12 orexin-A with buffer in place of antagonist. For each antagonist, IC50 value (the concentration of compound needed to inhibit 50% of the agonist response) is determined. Alternatively, compound potency can be assessed by a radioligand binding assay (described in Bergman et. al. Bioorg. Med. Chem. Lett. 2008, 18, 1425-1430) in which the inhibition constant (Ki) is determined in membranes prepared from CHO cells expressing either the OX1 or OX2 receptor. The intrinsic orexin receptor antagonist activity of a compound which may be used in the present invention may be determined by these assays.

For another test, the target named is T2, rat orexin-1 receptor (Rattus norvegicus, UniProt P56718).
T2 construct: expressed in transfected cells; host or cells: CHO cells (G418 selection)
T2 sequence (P56718 1-416): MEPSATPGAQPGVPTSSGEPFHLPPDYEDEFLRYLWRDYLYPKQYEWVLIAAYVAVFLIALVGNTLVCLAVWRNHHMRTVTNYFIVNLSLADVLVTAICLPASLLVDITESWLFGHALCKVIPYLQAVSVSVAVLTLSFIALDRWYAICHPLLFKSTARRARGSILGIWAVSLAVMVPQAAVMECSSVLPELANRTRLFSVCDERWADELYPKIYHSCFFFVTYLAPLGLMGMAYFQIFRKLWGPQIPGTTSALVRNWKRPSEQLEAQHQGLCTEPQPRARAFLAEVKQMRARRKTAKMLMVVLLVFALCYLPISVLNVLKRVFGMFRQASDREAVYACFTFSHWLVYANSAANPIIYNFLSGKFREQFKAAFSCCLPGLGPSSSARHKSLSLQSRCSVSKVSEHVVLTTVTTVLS
The test can be described thus: OX1R FLIPR Ca flux assay (CHO cells). Type of test: cell-based. The settings on record: CHO cells expressing rat orexin-1 receptor; agonist 70 pM Ala-6,12 orexin-A. On the procedure: as §1

Regarding `CCOc1ncccc1C(=O)N1CCCN(c2nc(C(C)(C)O)c(C)o2)CC1` [Example 21, 2-(2-{4-[(2-ethoxypyridin-3-yl)carbonyl]-1,4-diazepan-1-yl}-5-methyl-1,3-oxazol-4-yl)propan-2-ol], the IC50 was found to be 34 nM on human orexin-2 receptor and 7.89 µM on rat orexin-1 receptor. In addition, at human orexin-2 receptor, the “Fold Selectivity OX2R vs. OX1R” value is recorded as 231 fold.
Turning to `Cc1ccc(-n2nccn2)c(C(=O)N2CCCN(c3nc4ccccc4o3)CC2)c1` [Example B-3, reference compound], on human orexin-2 receptor (comparison with diazepane compounds of WO 2007/126935, whole cell FLIPR functional assay), the “selectivity between orexin-2 receptor and orexin-1 receptor (in words)” value is “greater selectivity for the orexin-1 receptor than for the orexin-2 receptor”.
Regarding `Cc1cc(C)nc(N2CCCN(C(=O)c3ccccc3OC(F)(F)F)CC2)n1` [Example 10, 1-(4,6-dimethylpyrimidin-2-yl)-4-{[2-(trifluoromethoxy)-phenyl]carbonyl}-1,4-diazepane], on human orexin-2 receptor, the IC50 was found to be 36 nM and the “Fold Selectivity OX2R vs. OX1R” value is given as above 277 fold. At rat orexin-1 receptor, this compound displayed an IC50 above 10 µM.
Take `Cc1oc(N2CCCN(C(=O)c3ccccc3OC(F)F)CC2)nc1C(C)(C)O` [Example 12, (2-(difluoromethoxy)phenyl)(4-(4-(2-hydroxypropan-2-yl)-5-methyloxazol-2-yl)-1,4-diazepan-1-yl)methanone]: at human orexin-2 receptor, the IC50 is 12 nM and the “Fold Selectivity OX2R vs. OX1R” value is 332 fold. Further, the IC50 on rat orexin-1 receptor was found to be 3.99 µM.
`CC(C)(O)c1csc(N2CCCN(C(=O)c3ccc(F)cc3-n3nccn3)CC2)n1` [Example 26, (4-fluoro-2-(2H-1,2,3-triazol-2-yl)phenyl)(4-(4-(2-hydroxypropan-2-yl)thiazol-2-yl)-1,4-diazepan-1-yl)methanone]: the IC50 on human orexin-2 receptor was 136 nM; at rat orexin-1 receptor, above 10 µM. The “Fold Selectivity OX2R vs. OX1R” value on human orexin-2 receptor is given as above 73 fold.
The corresponding values for `Cc1oc(N2CCCN(C(=O)c3cccnc3OC(C)C)CC2)nc1C(C)(C)O` [Example 14, 2-[5-methyl-2-(4-{[2-(1-methylethoxy)pyridin-3-yl]carbonyl}-1,4-diazepan-1-yl)-1,3-oxazol-4-yl]propan-2-ol] are 41 nM, above 10 µM and above 244 fold.
For the compound `CCOc1ccccc1C(=O)N1CCCN(c2nc(C(C)(C)O)c(C)o2)CC1` [Example 19, 2-(2-{4-[(2-ethoxyphenyl)carbonyl]-1,4-diazepan-1-yl}-5-methyl-1,3-oxazol-4-yl)propan-2-ol], on human orexin-2 receptor, the IC50 was 19 nM and the “Fold Selectivity OX2R vs. OX1R” value is on record as 170 fold. In addition, the IC50 at rat orexin-1 receptor amounted to 3.24 µM.
For `Cc1cc(C)nc(N2CCCN(C(=O)c3cccnc3OCC(F)(F)F)CC2)n1` [Example 1, (4-(4,6-dimethylpyrimidin-2-yl)-1,4-diazepan-1-yl)(2-(2,2,2-trifluoroethoxy)pyridin-3-yl)methanone] the same measures were 18 nM, 343 fold and 6.17 µM.
For the compound `Cc1oc(N2CCCN(C(=O)c3cccnc3OCC(F)(F)F)CC2)nc1C(C)(C)O` [Example 17, 2-[5-methyl-2-(4-{[2-(2,2,2-trifluoroethoxy)pyridin-3-yl]carbonyl}-1,4-diazepan-1-yl)-1,3-oxazol-4-yl]propan-2-ol], at human orexin-2 receptor, the IC50 is 17 nM and the “Fold Selectivity OX2R vs. OX1R” value was determined as 146 fold. The compound also returned an IC50 on rat orexin-1 receptor of 2.49 µM.
For the compound `Cc1oc(N2CCCN(C(=O)c3cccnc3OCC(F)F)CC2)nc1C(C)(C)O` [Example 16, 2-[2-(4-{[2-(2,2-difluoroethoxy)pyridin-3-yl]carbonyl}-1,4-diazepan-1-yl)-5-methyl-1,3-oxazol-4-yl]propan-2-ol], on human orexin-2 receptor, the IC50 amounted to 26 nM and the “Fold Selectivity OX2R vs. OX1R” value is on record as 142 fold. At rat orexin-1 receptor, this compound displayed an IC50 of 3.69 µM.
In the case of `CC(C)(O)c1csc(N2CCCN(C(=O)c3cccnc3OCC(F)F)CC2)n1` [Example 22, (2-(2,2-difluoroethoxy)pyridin-3-yl)(4-(4-(2-hydroxypropan-2-yl)thiazol-2-yl)-1,4-diazepan-1-yl)methanone], at human orexin-2 receptor, the IC50 turned out to be 90 nM and the “Fold Selectivity OX2R vs. OX1R” value was above 111 fold. The compound also returned an IC50 at rat orexin-1 receptor above 10 µM.
For the compound `CC(C)(O)c1csc(N2CCCN(C(=O)c3ccccc3OC(F)(F)F)CC2)n1` [Example 24, (4-(4-(2-hydroxypropan-2-yl)thiazol-2-yl)-1,4-diazepan-1-yl)(2-(trifluoromethoxy)phenyl)meth-anone], the 50% inhibitory concentration (IC50) on human orexin-2 receptor was 216 nM; on rat orexin-1 receptor it was above 10 µM. Moreover, the “Fold Selectivity OX2R vs. OX1R” value on human orexin-2 receptor is on record as above 46 fold.
With `Cc1oc(N2CCCN(C(=O)c3ccccc3-n3nccn3)CC2)nc1C(C)(C)O` [Example 13, 2-[5-methyl-2-(4-{[2-(2H-1,2,3-triazol-2-yl)phenyl]carbonyl}-1,4-diazepan-1-yl)-1,3-oxazol-4-yl]propan-2-ol], the IC50 on human orexin-2 receptor came to 27 nM; at rat orexin-1 receptor, 1.27 µM. Moreover, the “Fold Selectivity OX2R vs. OX1R” value at human orexin-2 receptor is given as 47 fold.
In the case of `CCOc1ccccc1C(=O)N1CCCN(c2nc(C)cc(C)n2)CC1` [Example 7, 1-(4,6-dimethylpyrimidin-2-yl)-4-[(2-ethoxyphenyl)carbonyl]-1,4-diazepane], on human orexin-2 receptor, the half-maximal inhibitory concentration (IC50) stood at 64 nM and the “Fold Selectivity OX2R vs. OX1R” value is 132 fold. The same compound registered an IC50 at rat orexin-1 receptor of 8.5 µM.
The corresponding values for `Cc1oc(N2CCCN(C(=O)c3ccc(F)cc3-n3nccn3)CC2)nc1C(C)(C)O` [Example 18, 2-[2-(4-{[4-fluoro-2-(2H-1,2,3-triazol-2-yl)phenyl]carbonyl}-1,4-diazepan-1-yl)-5-methyl-1,3-oxazol-4-yl]propan-2-ol] are 20 nM, 145 fold and 2.9 µM.
Take `Cc1cc(C)nc(N2CCCN(C(=O)c3ccccc3OC(F)F)CC2)n1` [Example 5, 1-{[2-(difluoromethoxy)phenyl]carbon-yl}-4-(4,6-dimethylpyrimidin-2-yl)-1,4-diazepane]: at human orexin-2 receptor, the IC50 came to 76 nM and the “Fold Selectivity OX2R vs. OX1R” value is given as above 131 fold. The compound also showed an IC50 at rat orexin-1 receptor above 10 µM.
As for `Cc1cc(C)nc(N2CCCN(C(=O)c3ccc(F)cc3-n3nccn3)CC2)n1` [Example 3, 1-(4,6-dimethylpyrimidin-2-yl)-4-{[4-fluoro-2-(2H-1,2,3-triazol-2-yl)phenyl]carbonyl}-1,4-diazepane], at human orexin-2 receptor, the IC50 was 35 nM and the “Fold Selectivity OX2R vs. OX1R” value was found to be 142 fold. For the same compound, the IC50 at rat orexin-1 receptor turned out to be 4.98 µM.
As for `CC(C)(O)c1csc(N2CCCN(C(=O)c3ccccc3C3CC3)CC2)n1` [Example 25, (2-cyclopropylphenyl)(4-(4-(2-hydroxypropan-2-yl)thiazol-2-yl)-1,4-diazepan-1-yl)methanone], at human orexin-2 receptor, the half-inhibitory concentration (IC50) was 108 nM and the “Fold Selectivity OX2R vs. OX1R” value is above 92 fold. The same compound yielded an IC50 at rat orexin-1 receptor above 10 µM.
